Reference: PMC6736360, “P-Glycoprotein–Mediated Efflux Reduces the In Vivo Efficacy of a Therapeutic Targeting the Gastrointestinal Parasite Cryptosporidium” (The Journal of Infectious Diseases, 2019)
Read-outs that look alike come from different tables or passages of the source.

Experiments:
P-gp = target: T1, P-gp (Homo sapiens, UniProt P08183); assay: Caco-2 P-gp efflux assay +/- valspodar; type: in vitro ADME; settings: Caco-2
T1 construct: endogenous in cells; host or cells: Caco-2 cells (clone C2BBe1, ATCC); assay run by Absorption Systems LP
T1 sequence (P08183 whole entry): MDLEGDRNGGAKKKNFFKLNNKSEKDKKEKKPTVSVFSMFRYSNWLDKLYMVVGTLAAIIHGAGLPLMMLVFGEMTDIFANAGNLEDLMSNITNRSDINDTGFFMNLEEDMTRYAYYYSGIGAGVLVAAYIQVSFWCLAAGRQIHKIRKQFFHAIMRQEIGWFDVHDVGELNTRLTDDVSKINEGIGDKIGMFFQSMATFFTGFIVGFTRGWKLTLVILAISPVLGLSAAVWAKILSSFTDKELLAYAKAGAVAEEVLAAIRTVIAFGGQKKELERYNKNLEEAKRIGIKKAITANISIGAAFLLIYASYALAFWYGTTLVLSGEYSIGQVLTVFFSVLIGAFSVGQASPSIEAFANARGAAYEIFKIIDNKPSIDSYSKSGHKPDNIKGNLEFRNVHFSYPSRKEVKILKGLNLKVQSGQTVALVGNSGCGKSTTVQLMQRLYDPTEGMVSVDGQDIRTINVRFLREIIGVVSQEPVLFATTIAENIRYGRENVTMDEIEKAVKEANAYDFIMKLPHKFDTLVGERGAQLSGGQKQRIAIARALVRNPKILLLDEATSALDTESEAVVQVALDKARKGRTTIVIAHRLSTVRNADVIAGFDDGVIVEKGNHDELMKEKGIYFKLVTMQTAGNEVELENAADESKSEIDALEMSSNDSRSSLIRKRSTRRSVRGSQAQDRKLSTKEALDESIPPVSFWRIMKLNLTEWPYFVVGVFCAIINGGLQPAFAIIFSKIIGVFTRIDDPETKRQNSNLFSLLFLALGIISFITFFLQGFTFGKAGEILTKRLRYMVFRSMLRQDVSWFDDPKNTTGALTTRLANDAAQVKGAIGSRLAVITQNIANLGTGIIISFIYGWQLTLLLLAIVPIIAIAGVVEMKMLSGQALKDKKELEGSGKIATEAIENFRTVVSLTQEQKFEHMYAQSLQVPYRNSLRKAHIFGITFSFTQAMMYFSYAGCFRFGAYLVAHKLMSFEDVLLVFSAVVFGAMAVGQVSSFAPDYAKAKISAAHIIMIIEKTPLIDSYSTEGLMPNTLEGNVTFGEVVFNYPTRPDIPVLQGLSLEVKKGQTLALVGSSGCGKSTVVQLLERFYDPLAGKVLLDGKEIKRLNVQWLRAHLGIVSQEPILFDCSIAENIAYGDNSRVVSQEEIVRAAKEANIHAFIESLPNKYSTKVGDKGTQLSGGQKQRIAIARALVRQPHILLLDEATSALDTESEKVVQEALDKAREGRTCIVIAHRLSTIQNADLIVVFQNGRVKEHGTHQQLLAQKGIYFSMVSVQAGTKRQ
Excerpt: Given the well-known role of P-gp in the efflux of many diverse drugs, the adenosine triphosphate–binding cassette (ABC) transporter was specifically chosen for initial studies, to identify the transporter responsible for BKI1318’s relatively low Papp. A Caco-2 system with overexpression of P-gp was used to verify the role of P-gp in BKI1318 transport (Supplementary Table 2). […] It should be noted that this experiment characterized the importance of P-gp with a single concentration of BKI1318. The kinetics of BKI1318 transport mediated by P-gp are still unknown, and it is not clear how the fraction of absorption mediated by P-gp transport will change with different concentrations of BKI1318.
(§1) To ensure no damage was inflicted to the cell monolayers during the flux period, lucifer yellow flux was also measured post-experimentally for each monolayer. To determine whether BKIs 1294, 1369, and 1318 were substrates of P-gp in vitro, P-gp efflux was characterized using the Caco-2 permeability assay protocol with a few modifications. The dosing solution concentration was 5 μM of BKI in the assay buffer +/- 1 μM valspodar. Cells were first pre-incubated for 30 minutes with HBSS containing +/- 1 μM valspodar. Cell monolayers were dosed on the apical side (A?B) or basolateral side (B?A), and incubated at 37°C with 5% CO2 in a humidified incubator. Samples were taken from the donor and receiver chambers at 120 minutes. Each determination was performed in duplicate.

[1] = In vitro solubility at pH 2 and 6.5; type: physicochemical; settings: pH 2, represents stomach; read-out: Solubility (pH 2)
Procedure: Figure 1. Structures, in vitro efficacy, and physicochemical properties of bumped kinase inhibitors (BKIs). […] Solubilities for each BKI were measured at pH 2 and 6.5, to represent the stomach and small intestinal environments, respectively. The human effective permeability (Peff) was predicted as described in Materials and Methods.

[2] = Caco-2 trans-well apparent permeability assay; type: in vitro ADME; settings: human, pH 7.4
Procedure: To initially characterize the permeability of BKIs 1294, 1369, and 1318, the software MedChem Designer (Simulations +, Lancaster, CA) was used to predict the Peff. The in vitro apparent permeability (Papp) was carried out by Absorption Systems LP (Exton, PA) with a Caco-2 trans-well assay. Caco-2 cells (clone C2BBe1) were obtained from American Type Culture Collection (Manassas, VA) were grown to confluence on collagen-coated, microporous membranes in 12-well assay plates. The permeability assay buffer was Hanks’ balanced salt solution (HBSS) containing 10 mM HEPES and 15 mM glucose at a pH of 7.4. The buffer in the receiver chamber also contained 1% bovine serum albumin. The dosing solution concentration was 5 µM BKI in assay buffer, and the cell monolayers were dosed on the apical side (A?B) or basolateral side (B?A) and incubated at 37°C with 5% CO2 in a humidified incubator. After 120 minutes, samples were taken from the donor and receiver chambers in duplicate. The Papp was calculated with equation (1) and the percent recovery with equation (2).
Papp = (dCr/dt) × Vr/(A × CA) (1)
Percent Recovery = 100 × ((Vr × Cr^final) + (Vd × Cd^final))/(Vd × […]) (2)
where dCr/dt is the slope of the cumulative concentration in the receiver compartment versus time in µM s^-1; Vr is the volume of the receiver compartment in cm^3; Vd is the volume of the donor compartment in cm^3; A is the area of the insert (1.13 cm^2 for 12-well); CA is the average of the nominal dosing concentration and the measured 120 minute donor concentration in µM; CN is the nominal concentration of the dosing solution in µM; Cr^final is the cumulative receiver concentration in µM at the end of the incubation period; Cd^final is the concentration of the donor in µM at the end of the incubation period.
as §1

C. parvum [3] = test system: C. parvum; parameters: method as in PMID 28329187; settings: previously published study; cited from earlier work
C. parvum [4] = assay: Hollow fiber in vitro Cryptosporidium culture with polarized HCT-8 cells; type: cell-based, Cryptosporidium parvum
Procedure: C. parvum was cultured using a hollow fiber bioreactor modified for evaluation of potential chemotherapeutic compounds [[21–23]]. Briefly, the system used a 20-kD MWCO polysulfone fiber cartridge (FiberCell Systems, Frederick, MD). HCT-8 cells were grown on the outer surface of the fibers (extracapillary space), and reservoirs were used to provide nutrients to the cells. When the glucose concentration decreased to at least 2 g/L, the extracapillary space was inoculated with 10^6C. parvum (Iowa isolate, Bunch Grass Farms, Deary, ID). […] Compound concentration was reduced over time by the flow of medium through the extracapillary and intracapillary spaces. Samples were removed from the extracapillary space once per day for evaluation of parasite numbers.
C. parvum growth was determined by analysis of the amount of C. parvum 18S-rRNA present and compared to the HCT-8 18S-rRNA as previously described^3. Briefly this was performed by centrifugation at 14,000 x g for 5 min of 0.5 mL samples collected from the extracapillary space (ECS). The pellet was resuspended in 100 µL of iScript buffer and subject to 6-freeze/thaw cycles comprising 1 min in liquid nitrogen followed by 1.5 min at 70 °C. The lysate was collected by centrifugation at 16,162 x g for 5 min, and the RNA purified according to the manufacturer’s instructions (iScriptTM, RT-qPCR sample preparation kit, Bio-Rad Laboratories). C. parvum was enumerated by quantitating the Cp18S-rRNA using the following specific forward and reverse primers - Cp18S-995F: 5’-[…]-3’ and Cp18S-1206R: 5’-[…]-3’ and compared to the human Hs18S-rRNA using the following primer sets - Hs18S-F1373: 5’-[…]-3’ and Hs18S-R1561: 5’-[…]-3’. The amount of 18S-rRNA was determined using 5 ng samples by RT-qPCR as described the manufacturer instructions using a Luna Universal One-Step® RT-qPCR kit (New England Biologics) and a Quant Studio 6 Flex 44 instrument. The cell number is calculated from the CT means using a set of standards prepared from 10^4, 10^5, and 10^6 C. parvum oocysts and compared to 10^4, 10^5, and 10^6 HCT-8 cells.

Cryptosporidium parvum = assay: C. parvum growth inhibition, nonpolarized HCT-8 coculture assay; type: cell-based
Excerpt: Information regarding C. parvum growth inhibition by BKIs, the hollow fiber model, liquid chromatography–tandem mass spectrometry (LC-MS/MS) methods, and the interferon γ (IFN-γ) knockout (KO) mouse model of C. parvum infection has been described in detail previously [[15], [20–23]]. Information on BKI permeability, LC-MS/MS quantification of elacridar, and quantification of Cryptosporidium by polymerase chain reaction analysis is described in the Supplementary Materials. Unless noted otherwise, statistical significance was determined with an unpaired Student t test, using a significance level of 0.05.
To evaluate the potential impact of P-gp efflux on BKI1318 in vitro efficacy, in vitro assays with polarized and nonpolarized HCT-8 cells were evaluated. The nonpolarized HCT-8 coculture assay to screen anti-Cryptosporidium drug candidates has been previously reported by us in detail. […] Based on the reported elacridar half maximal inhibitor concentration for the inhibition of P-gp, the P-gp activity was predicted to be reduced with both elacridar concentrations. […] Elacridar alone had no effect on C. parvum levels.

Cryptosporidium = test system: Cryptosporidium; parameters: method as in PMID 28329187; settings: cited from earlier work
[5] = Mouse gastrointestinal tissue pharmacokinetics; type: in vivo, mice; settings: mouse, oral; for AUC(0-t): read-out: AUC0-12; for Cmax: read-out: Observed Cmax; for Tmax: read-out: Tmax
Procedure: At multiple time points following BKI1318 administration, mice were euthanized, and the GI tract was separated into segments corresponding to the duodenum, jejunum, ileum, and cecum/colon. […] At 0.5, 1, 2, 4, 8, and 12 hours, three mice in each group were sacrificed by cervical dislocation, and the duodenum, jejunum, ileum, and cecum/ascending colon were immediately collected. Each section of the GI tract was flushed with Dulbecco's phosphate-buffered saline, weighed, and placed in storage at -80°C. On the day of homogenization, 0.9% NaCl was added to each sample to achieve 200 mg/mL tissue concentration. Samples were homogenized using a handheld motorized homogenizer (Fisher Scientific, Waltham, MA) on ice and stored at -20°C until extraction and analysis. To report tissue concentrations, 1 gram of tissue was estimated to be 1 mL of volume.

C. parvum [6] = assay: IFN-γ KO mouse model of Cryptosporidium infection; type: in vivo, mice; settings: IFN-γ KO mice
Procedure: Efficacy in female IFN-γ KO mice (B6.129S7-Ifngtm1Ts/J; Jackson Laboratories) aged 8–10 weeks was evaluated as previously described. Beginning on day 6 after infection, mice were dosed with 30 mg/kg BKI1318 suspended in 0.2 mL of vehicle, 15 mg/kg elacridar in 0.1 mL of vehicle followed 15 minutes later by 30 mg/kg BKI1318 in 0.1 mL of vehicle, or 0.2 mL of vehicle only once daily for 5 days. Fecal specimens were collected daily from each group and weighed. Each fecal sample was checked for luminescence on the day of collection, and the number of relative light units was determined and normalized to fecal sample weights.

[7] = cecum/colon, elacridar in Cecum/Colon
[8] = duodenum, elacridar in Duodenum

Q: For `C[C@H]1O[C@@H](O[C@H]2[C@@H](O)C[C@H](O[C@H]3[C@@H](O)C[C@H](O[C@H]4CC[C@@]5(C)[C@H](CC[C@@H]6[C@@H]5C[C@@H](O)[C@]5(C)[C@@H](C7=CC(=O)OC7)CC[C@]65O)C4)O[C@@H]3C)O[C@@H]2C)C[C@H](O)[C@@H]1O` [digoxin, reference compound], which “P-gp Substrate Classification” value (P-gp) is on record?
A: Positive

Q: For `CCOc1ccc2cc(-c3nn(CC4CCN(C)CC4)c4ncnc(N)c34)ccc2c1` [BKI1294], which solubility [1] is on record?
A: > 100 µM

Q: What about the recovery at 120 min, 5 µM ([2]; Caco-2 assay, A→B for BKI 1294, read-out: Percent recovery) of the same compound?
A: 62%

Q: And the Papp A→B at 120 min, 5 µM ([2]; Caco-2, 5 µM, 120 minutes)?
A: 12.7 ×10⁻⁶ cm/s

Q: What about the Papp B→A at 120 min, 5 µM ([2]; Caco-2, 5 µM, 120 minutes) of the same compound?
A: 22.6 ×10⁻⁶ cm/s

Q: And the “C. parvum reduction in mouse model of cryptosporidiosis” value (C. parvum [3])?
A: > 2 log

Q: What about the “P-gp Substrate Classification” value (P-gp) of the same compound?
A: Negative

Q: And the “Reduction of C. parvum levels over the course of the study” value (C. parvum [4]; hollow fiber model, polarized HCT-8 cells)?
A: > 3 orders of magnitude

Q: What about the “Reduction in C. parvum level by 24 hours after the final dose, on day 4” value (C. parvum [4]; hollow fiber, once per day for 4 days, BKI1294 80 µM, BKI1369 40 µM) of the same compound?
A: > 6 log

Q: What about the EC50 (Cryptosporidium parvum; Cryptosporidium parvum, HCT-8, in vitro, read-out: C. parvum EC50) of the same compound?
A: 2700 nM

Q: What about the “Efficacy in neonatal mouse model of Cryptosporidium infection” value (Cryptosporidium) of the same compound?
A: efficacious

Q: Which AUC(0-t) [5, 7] does the source give for `COc1cc2c(cc1OC)CN(CCc1ccc(NC(=O)c3cccc4c(=O)c5cccc(OC)c5[nH]c34)cc1)CC2` [elacridar, reference compound] here?
A: 12.6 ± 8.5 µM·h

Q: What about the Cmax [5, 7] of the same compound?
A: 3.3 ± 3.1 µM

Q: What about the Tmax [5, 7] of the same compound?
A: 6 h

Q: And the AUC(0-t) [5, 8]?
A: 118 ± 4.9 µM·h

Q: And the Cmax [5, 8]?
A: 61.2 µM

Q: What about the Tmax [5, 8] of the same compound?
A: 0.6 h

Q: And the AUC(0-t) ([5]; ileum, elacridar in Ileum)?
A: 170 ± 45.7 µM·h

Q: And the Cmax ([5]; ileum, elacridar in Ileum)?
A: 35.2 µM

Q: What about the Tmax ([5]; ileum, elacridar in Ileum) of the same compound?
A: 1.7 h

Q: What about the AUC(0-t) ([5]; jejunum, elacridar in Jejunum) of the same compound?
A: 104 ± 21.4 µM·h

Q: What about the Cmax ([5]; jejunum, elacridar in Jejunum) of the same compound?
A: 32.6 µM

Q: And the Tmax ([5]; jejunum, elacridar in Jejunum)?
A: 0.6 h

Q: And the “Effect on Cryptosporidium infection, administered alone” value (C. parvum [6])?
A: no effect

Q: What about the “Effect on C. parvum levels/growth” value (C. parvum [4]; hollow fiber model, compound alone, 80 µM once daily) of the same compound?
A: no effect

Q: What about the “Effect on C. parvum levels” value (Cryptosporidium parvum; nonpolarized HCT-8 cells, compound alone) of the same compound?
A: no effect

Q: For `CC(C)NCC(O)COc1cccc2ccccc12` (stereo not drawn) [Propranolol, reference compound], which Papp A→B at 120 min, 5 µM ([2]; Caco-2, 5 µM, 120 minutes) is on record?
A: 23.2 ×10⁻⁶ cm/s
